For data set [1], the system named is KRAS^G12C-mutated MIA-PA-CA-2 cells. The experiment in a line: Inhibition of proliferation of KRAS^G12C-mutated MIA-PA-CA-2 cells (CellTiter-Glo, 72 h). It is filed as cell-based, human. As to conditions: Homo sapiens, MIA PaCa-2, 72 h incubation. The procedure:
Compounds were assayed for IC50 of inhibition of proliferation of KRAS^G12C-mutated MIA-PA-CA-2 cells.
The main reagent used in this assay included CellTiter-Glo (Promega, Cat. No. G7573).
The main instrument used in this assay was PerkinElmer EnVision multi-function microplate reader.
1.4 Method of the Assay • 1) Adherent cells were digested with trypsin to form a cell suspension, and the cell suspension was counted for later use. • 2) An appropriate amount of cells was added into a centrifuge tube, and a cell culture medium was added to make up the required volume; then the cells were plated to a 96-well plate at a final density of 2000 cells/well, 100 μL of culture medium. • 3) After incubating for 24 hr, the compound was formulated to 10 mM with DMSO, and serially diluted 3-fold with DPBS (Dulbecco's Phosphate Buffered Saline) to 9 points; 10 μL was added to each well in duplicate. 10 μL of DPBS per well was added to the assay control wells (Con). • 4) On the same day, 50 μL of CellTiter Glo was added to another cell culture plate without compounds, and the fluorescence value was read by EnVision. […] The fluorescence value was read by EnVision. • 6) Data analysis: The inhibition rate of cells in each well was calculated according to the following equation: […]
(Cellular ATP, detected with luciferase, serves as a proxy for viable cell number.)

Data set [2] deals with KRAS^G12C-mutated H358 cells. As to the kind of experiment: H358 cell assay: inhibition of proliferation (CellTiter-Glo, 5 days). The data set is classed as cell-based. Particulars: Homo sapiens, 120 h; NCI-H358 cells, 5 days incubation. The procedure:
Compounds were assayed for IC50 of inhibition of proliferation of KRAS^G12C-mutated H358 cells.
The main instrument used in this assay was a Nivo multi-label analyzer (PerkinElmer).
2.4 Method of the Assay: • 1) NCI-H358 cells were inoculated in a white 96-well plate, and each well contained 80 μL of cell suspension and 4000 NCI-H358 cells. […] The assay was carried out in duplicate. 78 μL of medium was added to the intermediate plate, and then 2 μL of the serially diluted compound was transferred to each well of the intermediate plate according to the corresponding position. After mixing well, 20 μL per well was transferred to the cell plate. […] The cell plate was incubated in a carbon dioxide incubator for 5 days. Another cell plate was prepared, and the signal value of the cell plate was read on the day of compound addition as the maximum value (Max value in the equation below) to participate in data analysis. 25 μL of cell viability chemiluminescence detection reagent was added to each well of the cell plate, and the plate was incubated at room temperature for 10 minutes to stabilize the luminescence signal. A multi-label analyzer was used for reading the plate. • 3) […]

The nature of data set [3]: Protein binding rate by equilibrium dialysis, CD-1 mice plasma. It is filed as in vitro ADME. As to conditions: CD-1, mouse, plasma; mice, as listed in PK Table 9; read-out: Plasma protein unbound rate PPB (Unbound %). As to the method: (§1) Purpose of the assay: Protein binding rate of the assay compounds in plasma of CD-1 mice, SD rats, beagle dogs, cynomolgus monkeys and human was determined by equilibrium dialysis.
(§2) Procedure of the assay: Plasma samples with a compound concentration of 2 μM were prepared using plasma of the above five species, placed in a 96-well equilibrium dialysis device, and dialyzed with phosphate buffer solution at 37±1° C. for 4 hours. Warfarin was used as the control compound in this assay. The concentrations of the assay compounds in plasma and dialysis buffer were determined by LC-MS/MS method.
(In equilibrium dialysis only unbound substance equilibrates across the membrane.)

A short description of data set [4]: Protein binding rate by equilibrium dialysis, SD rats plasma. It is filed as in vitro ADME. As to conditions: rat, plasma; SD rats, as listed in PK Table 8; read-out: Plasma protein unbound rate PPB (Unbound %). The procedure:
as §1, §2

Turning to `C=C(F)C(=O)N1CCN(c2nc(OC[C@@]34CCCN3C[C@H](F)C4)nc3c2COC(c2c(F)c(N)cc(C)c2C(F)(F)F)C3)C[C@@H]1CC#N` (stereo partly shown) [Compound 17], the IC50 (usually the concentration at which inhibition is half-maximal) was 0.44 nM in data set [1] and 0.6 nM in data set [2]. Also, the fraction unbound at 4 h, 2 μM in data set [3] is 0.0154; in data set [4], 0.048.

Source of the values: patent US12012404B2, “Pyrimidoheterocyclic compounds and application thereof” (D3 BIO (WUXI) CO., LTD., priority 2020, dated 2024).
